In patent EP3355943B1, “METHODS AND SYSTEMS FOR TREATING MEDICAL DEVICES AND FLUIDS” (Ethicon, Inc., priority 2015, dated 2017):
Where “and” joins values, the source holds several entries; their conditions need not be identical. Equal entries are not always repeated.

How the values were obtained:
Format in all cases: biochemical
[1] = Suture testing in ethanol, cyclohexane, isopropanol with 1% calcium stearate; conditions: for Change in Endotoxin Level (%): vs. Suture-1 not submerged (68.1 EU)
Experimental: Similarly to the testing above, an absorbable suture of the same type, similarly contaminated, was exposed to CaSt in three solvents (ethanol, cyclohexane, isopropanol). The suture was then tested for LPS.
Sutures used were 27 inch long pieces of absorbable lactide-glycolide sutures. […] 7 strands of suture were placed in tubing with endotoxin solution for 10 minutes at a time. The sutures were dried for 20 minutes and then placed in round bottom tubes. […] 1 suture was placed in each tube and vortexed in this solution for approximately 10 seconds. The sutures were removed and allowed to dry for 20 minutes and then placed in round bottom tubes. This was done for 6 sutures. 1 piece of suture, serving as the control, was not submerged in any solutions and placed in test tubes. 3 mL of LAL reagent water was added to each test tube, vortexed vigorously, and then placed in a hot water bath at 37°C for 1 hour. They were then removed, vortexed vigorously, diluted, and tested on the MCS system. […] Results of testing in ethanol, cyclohexane, isopropanol

[2] = Suture testing in aqueous suspension of CaSt: endotoxin detected on LPS-contaminated suture
Experimental: Treatment of sutures in aqueous suspensions of CaSt was performed as follows: Suture used was VICRYL® (Polyglactin 910) suture made of a copolymer made from 90% glycolide and 10% L-lactide, Size 1, 27 inch pieces. […] Endosafe LAL Reagent Water (LRW) was used, manufactured by Charles River Laboratories, Charleston S.C..
Eight strands of suture were placed in tubing with LPS (endotoxin) solution for 10 minutes at a time. The sutures were dried for 20 minutes and then placed in round bottom tubes. Suspensions of 5% by weight CaSt in LAL Reagent Water were prepared. (0.5 g CaSt in 10 mL LRW). One suture was placed in each tube and vortexed in this solution for approximately 10 seconds. The sutures were removed and allowed to dry for 20 minutes and then placed in round bottom tubes. This was done for 3 sutures. Three pieces of suture, serving as the control, were not submerged in any solutions and placed in test tubes. 3 mL of LAL reagent water was added to each test tube, vortexed vigorously for 1 minute, and then placed in a hot water bath at 37°C for 1 hour. They were then removed, vortexed vigorously for 1 minute, diluted, and tested on the MCS system. […] These were also tested for endotoxin on the MCS. Table 4. Detection of LPS after adding CaSt to test tubes containing water spiked with LPS

[3] = Detection of LPS after adding CaSt powder to water spiked with LPS (Kinetic Chromogenic Method for Endotoxin Quantitation)
Experimental: Water and aqueous solutions (containing LPS with various sources of endotoxin) were exposed to calcium stearate [CaSt] […] 5 mL of water solution of known endotoxin concentration (generated by spiking endotoxin-free water with water solution of known endotoxin concentration) was added to the each test tube, vortexed vigorously (1 minute) using Fisher Scientific Digital Vortex Mixer, and then placed in a warm water bath (37°C) for 1 hour. After 1 hour, the tubes were removed from warm water bath and vortexed vigorously (1 minute). Sterile syringes with needles were used to extract the solution without removing the calcium stearate. This solution was then tested for endotoxin levels. Kinetic Chromogenic Method for Endotoxin Quantitation, using Endosafe MCS Multi Cartridge System by Charles River Laboratories, Charleston S.C.

[4] = suture submerged in Cyclohexane w/1% Calcium Stearate (0.0858 g)
[5] = suture submerged in Ethanol w/1% Calcium Stearate (0.0827 g)
[6] = suture submerged in Isopropanol w/1% Calcium Stearate (0.0841 g)
[7] = 0.0027 g CaSt in 5 ml water, 14,400 EU spiked
[8] = 0.0108 g CaSt in 5 ml water, 14,400 EU spiked
[9] = 0.0518 g CaSt in 5 ml water, 14,400 EU spiked
[10] = 0.2502 g CaSt in 5 ml water, 14,400 EU spiked
[11] = CaSt powder 0.254 g (sample 1), 0.2607 g (sample 2) in 5 ml water, 14,400 EU spiked, 0.254 g CaSt powder added
[12] = CaSt powder 0.254 g (sample 1), 0.2607 g (sample 2) in 5 ml water, 14,400 EU spiked, 0.2607 g CaSt powder added

For `CCCCCCCCCCCCCCCCCC(=O)O` [Calcium Stearate], the “LPS activity decreased by” value ([1]; CaSt 1% suspension in ethanol, cyclohexane, isopropanol) was 75-95%, the “Endotoxin Detected (EU)” value [1, 4] was 4.02 EU and the “Change in Endotoxin Level (%)” value [1, 4] was -94.1%. The “Endotoxin Detected (EU)” value [1, 5] was 15.06 EU, the “Change in Endotoxin Level (%)” value [1, 5] was -77.9% and the “Endotoxin Detected (EU)” value [1, 6] was 16.59 EU. The “Change in Endotoxin Level (%)” value [1, 6] was -75.6%, the “Endotoxin Detected (EU)” value ([2]; Water with 5% Calcium Stearate solution tested after suture removal (samples 4-6)) was less than 1.0 EU and the “Average Endotoxin Detected (EU)” value ([2]; suture submerged in LAL Water w/ 5% Calcium Stearate, samples 4-6) was 3.27 EU. For the same compound, the “Average Change in Endotoxin Level (%)” value ([2]; suture submerged in LAL Water w/ 5% Calcium Stearate, vs. sutures not submerged (84 EU)) was -96.1%, the “Endotoxin Detected (EU)” value [3, 7] was 11,055 EU and the “Percent of detected Endotoxin vs. initial concentration” value (from here on “Percent”) [3, 7] was 77% and 76.77%. For the same compound, the “Endotoxin Detected (EU)” value [3, 8] was 2,925 EU, the “Percent” value [3, 8] was 20% and 20.31% and the “Endotoxin Detected (EU)” value [3, 9] was 9.4 EU. The “Percent” value [3, 9] was 0.07%, the “Endotoxin Detected (EU)” value [3, 10] was 26.7 EU and the “Percent” value [3, 10] was 0.19%. For the same compound, the “Percent” value ([3]; CaSt powder 0.252/0.258/0.272/0.267 g (samples 1-4) in 5 ml water, 5.208 EU spiked, 37°C 1 hour, 0.252 g CaSt powder added) was less than 2.88%, the “Percent” value ([3]; CaSt powder 0.252/0.258/0.272/0.267 g (samples 1-4) in 5 ml water, 5.208 EU spiked, 37°C 1 hour, 0.258 g CaSt powder added) was less than 8.06% and the “Percent” value ([3]; CaSt powder 0.252/0.258/0.272/0.267 g (samples 1-4) in 5 ml water, 5.208 EU spiked, 37°C 1 hour, 0.267 g CaSt powder added) was less than 3.46%. The “Endotoxin Detected (EU)” value [3, 11] was 12.1 EU, the “Percent” value [3, 11] was 0.08% and the “Endotoxin Detected (EU)” value [3, 12] was 10.3 EU. The “Percent” value [3, 12] was 0.07%.
